According to paper PMC6406258, “The ROMP: A Powerful Approach to Synthesize Novel pH-Sensitive Nanoparticles for Tumor Therapy” (Biomolecules, 2019):
Like-named read-outs stand apart in the source and are kept apart here.

Assay: Hydrolysis of pro-drugs at biologically relevant pHs (half-lives)
Type: physicochemical
From the text: The behaviors of the eight pro-drugs synthesized were then validated by hydrolysis at various biologically relevant pHs: 4.3, 5.0, 6.0 for the pHs that can be found in acidic vesicles at various maturation degrees, and at pH 7.3 for the physiological and neutral pH. As one can see, the R substituent on the phenyl group is highly important for the modulation of the kinetics of the release. In the case of the two hydroxamic acid pro-drugs, the best system appeared to be the di-p-toluyl one (R=Me), with a half-life of 10–20 h at the moderately acidic pH of lysosomes. Other solutions were too stable or rapidly hydrolyzed. In the case of the benzamide drug, the best system was the diphenyl one (R=H). When a group with an electron donating effect was present on the phenyl rings, the benzamide pro-drugs were decomposed very quickly in a time range that limit the accurateness of the kinetic measurements.
The synthesis of pro-drugs (Scheme 1), the determination of the hydrolysis rates of pro-drugs in mildly acidic pH [25, 26], the pro-drug-functionalized macromonomer-PEO-CI994 (17), the pro-drug-functionalized macro-monomer-PEO-SAHA (16), the pro-drug-functionalized macro-monomer-PEO-NODH (15), and the synthesis of the pro-drug functionalized nanoparticles (NPs) (Figure 1), and the biological tests are developed in the supporting information part.

[1] = buffer, pH 4.3, read-out: Half-life (converted)
[2] = buffer, pH 7.3, read-out: Half-life (converted)
[3] = buffer, pH 5.0, read-out: Half-life (converted)
[4] = buffer, pH 6.0, read-out: Half-life (converted)

Row | SMILES | half-life [1] [h] | half-life [2] [h] | half-life [3] [h] | half-life [4] [h] | half-life (pH 4.3, result in words) | half-life (pH 5.0, result in words) | half-life (pH 6.0, result in words) | half-life (pH 7.3, result in words)
1 | C#CCOCCOCCOCCOCCn1cc(C(ONC(=O)CCCCCCC(=O)Nc2ccccc2)(c2ccc(OC)cc2)c2ccc(OC)cc2)nn1 [Compound 6c] | 0.5 | 0.567 | 1.33 | 1.8 |  |  |  | 
2 | C#CCOCCOCCOCCOCCn1cc(C(ONC(=O)CCCCCCC(=O)Nc2ccccc2)(c2ccccc2)c2ccccc2)nn1 [Compound 6a] |  |  |  |  | Stable | Stable | Stable | Stable
3 | C#CCOCCOCCOCCOCCn1cc(C(ONC(=O)CCCCCCC(=O)Nc2ccccc2)(c2ccc(C)cc2)c2ccc(C)cc2)nn1 [Compound 6b] | 20 | 96 |  | 80 |  |  |  | 

More lines, now with the values ahead:

Row | half-life [1] [h] | half-life [2] [h] | half-life [3] [h] | half-life [4] [h] | half-life (pH 4.3, result in words) | half-life (pH 5.0, result in words) | half-life (pH 6.0, result in words) | half-life (pH 7.3, result in words) | SMILES
4 | < 0.0167 |  | 0.2 | 0.167 |  |  |  |  | C#CCOCCOCCOCCOCCn1cc(C(Nc2ccccc2NC(=O)c2ccc(NC(C)=O)cc2)(c2ccc(C)cc2)c2ccc(C)cc2)nn1 [Compound 7b]
5 |  |  | 6.67 | 48 |  |  |  |  | C#CCOCCOCCOCCOCCn1cc(C(Nc2ccccc2NC(=O)c2ccc(NC(C)=O)cc2)(c2ccccc2)c2ccccc2)nn1 [Compound 7a]
6 | < 0.0167 |  | < 0.0833 | < 0.0833 |  |  |  |  | C#CCOCCOCCOCCOCCn1cc(C(Nc2ccccc2NC(=O)c2ccc(NC(C)=O)cc2)(c2ccc(OC)cc2)c2ccc(OC)cc2)nn1 [Compound 7c]
7 |  |  |  |  | stable | stable |  | Stable | C#CCOCCOCCOCCOCCn1cc(C(ONC(=O)/C=C/C(C)=C/C2(C)Oc3cc(N(C)C)ccc3C2=O)(c2ccccc2)c2ccccc2)nn1 (stereo not shown) [Compound 8a]
